What was measured:
Rattus norvegicus = test: Effective dose required to inhibit behavior effects induced by 8-OH-DPAT in reserpinized rats after subcutaneous administration; format: functional; conditions: sc
[1] = biological target: Serotonin 2 (5-HT2) receptor (Rattus norvegicus, UniProt P30994+P08909+P14842); test: Inhibition of binding of radioligand [3H]ketanserin to 5-hydroxytryptamine 2 receptor in rat cerebral cortex; format: tissue-based
D(2) dopamine receptor [2] = biological target: T1, D(2) dopamine receptor (Rattus norvegicus, UniProt P61169); test: Inhibition of binding of radioligand [3H]spiroperidol to dopamine D2 receptor in rat striatal membranes; format: cell membranes, Membrane
T1 sequence (P61169 whole entry): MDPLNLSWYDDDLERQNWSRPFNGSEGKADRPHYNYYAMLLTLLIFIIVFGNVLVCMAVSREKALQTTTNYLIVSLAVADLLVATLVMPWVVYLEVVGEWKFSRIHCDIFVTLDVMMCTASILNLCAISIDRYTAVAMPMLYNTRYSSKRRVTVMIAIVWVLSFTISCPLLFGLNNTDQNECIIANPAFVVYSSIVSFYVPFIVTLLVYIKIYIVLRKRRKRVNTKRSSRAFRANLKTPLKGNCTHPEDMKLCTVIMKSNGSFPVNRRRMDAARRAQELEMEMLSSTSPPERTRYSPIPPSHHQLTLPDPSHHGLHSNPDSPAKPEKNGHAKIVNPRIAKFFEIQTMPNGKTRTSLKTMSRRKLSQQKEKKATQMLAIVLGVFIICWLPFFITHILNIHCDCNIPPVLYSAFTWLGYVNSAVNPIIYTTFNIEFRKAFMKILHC

[3] = biological target: T2, 5-hydroxytryptamine receptor 1A (Rattus norvegicus, UniProt P19327); test: In vitro ability to inhibit binding of radioligand [3H]8-OH-DPAT to 5-hydroxytryptamine 1A receptor in rat cerebral cortex; format: tissue-based
T2 sequence (P19327 whole entry): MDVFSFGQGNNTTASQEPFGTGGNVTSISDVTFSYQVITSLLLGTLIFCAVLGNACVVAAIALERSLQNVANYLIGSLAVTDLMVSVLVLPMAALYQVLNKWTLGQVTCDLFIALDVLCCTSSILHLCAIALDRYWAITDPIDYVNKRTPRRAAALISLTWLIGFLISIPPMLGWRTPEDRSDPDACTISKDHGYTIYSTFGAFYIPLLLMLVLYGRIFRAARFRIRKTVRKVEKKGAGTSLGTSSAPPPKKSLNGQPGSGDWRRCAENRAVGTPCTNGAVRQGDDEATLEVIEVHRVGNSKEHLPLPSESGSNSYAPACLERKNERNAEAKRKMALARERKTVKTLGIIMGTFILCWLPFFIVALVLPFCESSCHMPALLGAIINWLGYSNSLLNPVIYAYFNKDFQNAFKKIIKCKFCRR

D(2) dopamine receptor [4] = biological target: T1, D(2) dopamine receptor; test: In vitro ability to inhibit binding of radioligand [3H]spiroperidol to dopamine D2 receptor in rat corpora striata
D(2) dopamine receptor [5] = biological target: T1, D(2) dopamine receptor; test: In vito ability to inhibit binding of radioligand [3H]spiroperidol to dopamine D2 receptor in rat corpora striata
D(2) dopamine receptor [6] = biological target: T1, D(2) dopamine receptor; test: In vitro ability to inhibit binding of radioligand [3H]spiroperidol to dopamine D2 receptor in rat striatal membranes; format: cell membranes, Membrane

Structure (SMILES)	ED50 (Rattus norvegicus)	IC50 [1]	IC50 (D(2) dopamine receptor [2])	IC50 [3]	Ki (D(2) dopamine receptor [4])	Ki [3]	Ki (D(2) dopamine receptor [5])	Ki (D(2) dopamine receptor [6])
COc1cccc2c1C(CCCN1CCN(c3cccc(C(F)(F)F)c3)CC1)=CCC2	24.2 mg/kg	2.37 µM	0.644 µM	0.0559 µM	–	–	–	–
COc1cccc2c1C(CCCN1CCN(c3cccc(Cl)c3)CC1)=CCC2	–	1.34 µM	0.484 µM	0.0314 µM	–	–	–	–
COc1ccc2c(c1)CCC=C2CCCN1CCN(c2cc(OC)ccc2OC)CC1	–	0.932 µM	0.201 µM	0.161 µM	–	–	–	–
COc1ccc2c(c1)CCC=C2CCCN1CCN(c2ccccc2OC)CC1	0.76 mg/kg	0.391 µM	0.0906 µM	0.002 µM	0.0224 µM	0.00178 µM	–	–
COc1ccc2c(c1)CCC=C2CCCN1CCN(c2ccccn2)CC1	–	0.146 µM	0.778 µM	0.0636 µM	–	–	–	–
COc1ccc2c(c1)CCC=C2CCCN1CCN(c2ccccc2)CC1	–	0.119 µM	0.777 µM	0.147 µM	–	–	–	–
COc1ccc2c(c1)CCC=C2CCCN1CCN(c2cccc(C(F)(F)F)c2)CC1	–	1.17 µM	1.29 µM	0.138 µM	–	–	–	–
COc1ccc2c(c1)CCC=C2CCCN1CCN(c2cccc(Cl)c2)CC1	–	0.133 µM	0.768 µM	0.131 µM	–	–	–	–
COc1ccccc1N1CCN(CCCC2=CCCc3cccc(OC)c32)CC1	–	0.77 µM	0.0174 µM	0.0088 µM	–	–	–	–
COc1ccc2c(c1)CCC=C2CCCN1CCNCC1	–	> 10 µM	> 10 µM	> 10 µM	–	–	–	–
COc1cccc2c1C(CCCN1CCN(c3ccccc3)CC1)=CCC2	–	0.204 µM	0.303 µM	–	–	–	–	–
COc1cccc2c1C(CCCN1CCN(c3ccccn3)CC1)=CCC2	–	0.205 µM	0.119 µM	0.0014 µM	–	0.00126 µM	0.0295 µM	–
COc1ccccc1N1CCN(CCCC2=CCCc3ccccc32)CC1	–	0.104 µM	0.0147 µM	0.0157 µM	–	–	–	–
COc1ccccc1N1CCN(CCCCN2C(=O)c3ccccc3C2=O)CC1 [NAN-190]	–	–	–	–	–	–	–	0.00955 µM

Source: ChEMBL document CHEMBL1127502, “Mixed 5-HT1A/D-2 activity of a new model of arylpiperazines: 1-aryl-4-[3-(1,2-dihydronaphthalen-4-yl)-n-propyl]piperazines. 1. Synthesis and structure-activity relationships” (J Med Chem, 1994)
